Data reported in PMC4418665, “Cyclization of the Urokinase Receptor-Derived Ser-Arg-Ser-Arg-Tyr Peptide Generates a Potent Inhibitor of Trans-Endothelial Migration of Monocytes” (PLoS ONE, 2015).
Peptide text beside a SMILES is read from it.

Tested on: RBL-2H3/ETFR cells
Test: RBL-2H3/ETFR cell migration, xCELLigence RTCA
Assay type: cell-based, rat
Conditions: 4 hours, Cell Index, quadruplicate
Protocol: We have previously documented that SRSRY competes with the bacterial-derived N-formyl-methionyl-leucyl-phenylalanine peptide (fMLF) for binding to FPR type 1 (FPR1) and that both SRSRY and fMLF promote cell migration by triggering FPR1 internalization. […] Quantification of cell-associated fluorescence was assessed by reading cell lysates with a fluorescence plate reader. RBL-2H3 cells lack FPR1, thus they display very low uptake that was not saturable with unlabeled fMLF (Fig 2A). […] To evaluate the effect of [SRSRY] on agonist-dependent FPR1 internalization, binding experiments were performed at 37°C. […] Thus, we assessed whether [SRSRY] elicits effects on fMLF-directed cell migration. RBL-2H3/ETFR cell migration toward 10 nM fMLF was monitored in real-time for 4 hours as Cell Index changes due to the adhesion of migrating cells to microelectrodes using the xCELLigence RTCA technology as previously described. […]
Fig 2 Both linear and cyclic SRSRY peptides bind to FPR1. […] Fluorimetric measurement of cell-associated fluorescence was assed using 485 nm excitation and 535 nm emission filters. Data are expressed as a percentage of the fluorescence associated to RBL-2H3 cells exposed to FITC-fMLF alone (CTL = 100%) and represent a mean ± SD from triplicates. *Statistical significance (t-test) against None with p<0.001. […] Cell migration of RBL-2H3/ETFR cells monitored by the xCELLigence system. […]

Q: What does the source list for `N=C(N)NCCC[C@@H]1NC(=O)[C@H](CO)NC(=O)[C@H](Cc2ccc(O)cc2)NC(=O)[C@H](CCCNC(=N)N)NC(=O)[C@H](CO)NC1=O` [[SRSRY], [Ser-Arg-Ser-Arg-Tyr]] (cyclo(RSRYS))?
A: RBL-2H3/ETFR cell migration toward 10 nM fMLF in presence of peptide (10 nM fMLF mixed with 10 nM peptide): reduced to the basal level; RBL-2H3/ETFR cell migration toward the peptide alone (10 nM peptide in lower chamber): cell migration did not change significantly
